Source: patent US9328374B2, “Selective culture medium and method for detecting carbapenem-resistant bacteria in a test sample” (Institut National de la Sante et de la Recherche Medicale …, priority 2011, dated 2016)

System: K. pneumoniae
Assay: MIC of imipenem, ertapenem and meropenem
Format: cell-based, Klebsiella pneumoniae

C[C@@H](O)[C@H]1C(=O)N2C(C(=O)O)=C(S[C@@H]3CN[C@H](C(=O)N(C)C)C3)[C@H](C)[C@H]12 [MEM, meropenem]
MIC (K. pneumoniae 1 OMA (NDM-1 + CTX-M-15 + OXA-1 + OXA-9)): >32 µg/mL | MIC (K. pneumoniae 2 OLA (NDM-1 + OXA-1)): 2 µg/mL | MIC (K. pneumoniae 7 AFR (NDM-1 + OXA-1 + CTX-M-15 + CMY-6 + TEM-1)): >32 µg/mL | MIC (K. pneumoniae 7AFR, NDM-1 + TEM-1 + CTX-M-15 + CMY-6 + OXA-1): >32 µg/mL | MIC (K. pneumoniae 0227, SHV-1, non-carbapenemase producer): 0.016 µg/mL | MIC (K. pneumoniae 588, KPC-2 + TEM-1 + SHV-11 + OXA-9): 16 µg/mL | MIC (K. pneumoniae 1022, SHV-2a + SHV-28, non-carbapenemase producer): 0.023 µg/mL | MIC (K. pneumoniae 1025 (CTX-M-14 + TEM-1 + SHV-11)): 0.016 µg/mL | MIC (K. pneumoniae 1025, CTX-M-14 + TEM-1 + SHV-11, non-carbapenemase producer): 0.016 µg/mL | MIC (K. pneumoniae 2303, KPC-2 + SHV-11): >32 µg/mL | MIC (K. pneumoniae 6642 GEN (NDM-1 + CTX-M-15 + OXA-1 + OXA-10)): 3 µg/mL | MIC (K. pneumoniae 6642 GEN, NDM-1 + CTX-M-15 + OXA-1 + OXA-10): 3 µg/mL | MIC (K. pneumoniae 6759 GEN (NDM-1 + CTX-M-15 + OXA-1 + OXA-9 + OXA-10 + CMY16)): >32 µg/mL | MIC (K. pneumoniae 6759 GEN, NDM-1 + CTX-M-15 + CMY-16 + OXA-1 + OXA-9 + OXA-10): >32 µg/mL | MIC (K. pneumoniae 7725 (SHV-1)): 0.032 µg/mL | MIC (K. pneumoniae 7725, SHV-1, non-carbapenemase producer): 0.032 µg/mL | MIC (K. pneumoniae 10112, CTX-M-15 + TEM-1 + SHV-11, non-carbapenemase producer): 0.023 µg/mL | MIC (K. pneumoniae 0404020, VIM-1+ SHV-5): >32 µg/mL | MIC (K. pneumoniae 0404024, VIM-1): >32 µg/mL | MIC (K. pneumoniae 0511135, VIM-1+ SHV-12): >32 µg/mL | MIC (K. pneumoniae 648236 (SHV-2a)): 0.38 µg/mL | MIC (K. pneumoniae 648236, SHV-2a, non-carbapenemase producer, porin deficiency): 0.38 µg/mL | MIC (K. pneumoniae 0709121, IMP-1): 1 µg/mL | MIC (K. pneumoniae 0709124, IMP-1 + TEM-15): 2 µg/mL | MIC (K. pneumoniae 0709125, IMP-1 + TEM-1 + SHV-12): 2 µg/mL | MIC (K. pneumoniae 0709127, IMP-1 + TEM-1): 1 µg/mL | MIC (K. pneumoniae A28006, KPC-2 + TEM-1 + CTX-M-2 + SHV-11): 32 µg/mL | MIC (K. pneumoniae A33504, KPC-2 + TEM-1 + SHV-11 + CTX-M-2 + OXA-9): >32 µg/mL | MIC (K. pneumoniae AEL, OXA-48 + CTX-M-15 + SHV-28 + OXA-1): 0.38 µg/mL | MIC (K. pneumoniae ALE (CTX-M-15 + SHV-1)): 4 µg/mL | MIC (K. pneumoniae ALE, CTX-M-15 + SHV-1, non-carbapenemase producer, porin deficiency): 4 µg/mL | MIC (K. pneumoniae AMS (OXA-48 + TEM-1 + CTX-M-15 + OXA-1)): 0.38 µg/mL | MIC (K. pneumoniae AMS, OXA-48 + TEM-1 + CTX-M-15 + OXA-1): 0.38 µg/mL | MIC (K. pneumoniae BAJ (OXA-48 + TEM-1 + CTX-M-15 + SHV-28)): 0.38 µg/mL | MIC (K. pneumoniae BAJ, OXA-48 + TEM-1 + CTX-M-15 + SHV-28): 0.38 µg/mL | MIC (K. pneumoniae BED (CTX-M-15 + TEM-1 + SHV-1; Table 8: SHV-11)): 4 µg/mL | MIC (K. pneumoniae BED, CTX-M-15 + TEM-1 + SHV-11, non-carbapenemase producer, porin deficiency): 4 µg/mL | MIC (K. pneumoniae BEL (OXA-48)): 1 µg/mL | MIC (K. pneumoniae BEL, OXA-48): 1 µg/mL | MIC (K. pneumoniae BEN (OXA-48 + TEM-1 + CTX-M-15 + SHV-28)): 0.25 µg/mL | MIC (K. pneumoniae BEN, OXA-48 + TEM-1 + CTX-M-15 + SHV-28): 0.25 µg/mL | MIC (K. pneumoniae BER (TEM-1 + SHV-28)): 1 µg/mL | MIC (K. pneumoniae BER, SHV-28 + TEM-1, non-carbapenemase producer, porin deficiency): 1 µg/mL | MIC (K. pneumoniae BEY (OXA-48 + CTX-M-15 + TEM-1)): 0.38 µg/mL | MIC (K. pneumoniae BEY, OXA-48 + TEM-1 + CTX-M-15): 0.38 µg/mL | MIC (K. pneumoniae BIC (OXA-48)): 0.5 µg/mL | MIC (K. pneumoniae BIC, OXA-48): 0.5 µg/mL | MIC (K. pneumoniae BOU, OXA-48): 0.25 µg/mL | MIC (K. pneumoniae CHA (OXA-48 + TEM-1)): 0.5 µg/mL | MIC (K. pneumoniae CHA, OXA-48 + TEM-1): 0.5 µg/mL | MIC (K. pneumoniae COL (KPC-2 + TEM-1 + SHV-1 + CTX-M-15)): 32 µg/mL | MIC (K. pneumoniae COO (CTX-M-15 + SHV28)): 4 µg/mL | MIC (K. pneumoniae COO, CTX-M-15 + SHV-28, non-carbapenemase producer, porin deficiency): 4 µg/mL | MIC (K. pneumoniae DAL (OXA-48 + CTX-M-15 + TEM-1)): 0.38 µg/mL | MIC (K. pneumoniae DAL, OXA-48 + TEM-1 + CTX-M-15): 0.38 µg/mL | MIC (K. pneumoniae DIA, OXA-48 + TEM-1b + CTX-M-15 + SHV-11 + OXA-1): >32 µg/mL | MIC (K. pneumoniae DUW, OXA-48 + TEM-1 + CTX-M-15 + SHV-28): 32 µg/mL | MIC (K. pneumoniae EGY (OXA-48 + CTX-M-15)): 2 µg/mL | MIC (K. pneumoniae EGY, OXA-48 + CTX-M-15): 2 µg/mL | MIC (K. pneumoniae ELK (OXA-48 + TEM-1 + CTX-M-15 + SHV-11)): 0.38 µg/mL | MIC (K. pneumoniae ELK, OXA-48 + TEM-1 + CTX-M-15 + SHV-11): 0.38 µg/mL | MIC (K. pneumoniae ENN, VIM-1+ SHV-5): 0.38 µg/mL | MIC (K. pneumoniae FOS (CTX-M-15 + TEM-1 + SHV-11)): >32 µg/mL | MIC (K. pneumoniae FOS, CTX-M-15 + TEM-1 + SHV-11, non-carbapenemase producer, porin deficiency): >32 µg/mL | MIC (K. pneumoniae GES, KPC-2 + TEM-1 + SHV-11): 1.5 µg/mL | MIC (K. pneumoniae HOL (OXA-181 + CTX-M-15)): 1 µg/mL | MIC (K. pneumoniae HOL, OXA-181 + CTX-M-15): 1 µg/mL | MIC (K. pneumoniae HPA, OXA-48 + TEM-1 + CTX-M-15 + OXA-1): 12 µg/mL | MIC (K. pneumoniae IND (NDM-1 + OXA-1 + CTX-M-15)): 4 µg/mL | MIC (K. pneumoniae KAM, KPC-3 + TEM-1 + SHV-11): 2 µg/mL | MIC (K. pneumoniae KDH (DHA-2)): 0.12 µg/mL | MIC (K. pneumoniae KDH, DHA-2, non-carbapenemase producer, overexpressed AmpC): 0.12 µg/mL | MIC (K. pneumoniae KI2, NDM-1 + CTX-M-15 + OXA-1): 4 µg/mL | MIC (K. pneumoniae KIE, NDM-1 + SHV-38 + CMY-16 + OXA-10): 1 µg/mL
